From publication PMC11403733, “Asymmetric Dirhodium-Catalyzed Modification of Immunomodulatory Imide Drugs and Their Biological Assessment” (ACS Medicinal Chemistry Letters, 2024)
Several values for one entry are separate records, joined by “and”; a condition that tells them apart may be missing. Equal entries are not always repeated.

How the values were obtained:
CK1α = molecular target: T1, CK1α (Homo sapiens, UniProt P48729+Q96SW2); assay: ePL degradation assay, MDS-L/CK1α ePL OE_GSPT1G575N OE cells; assay type: cell-based; details: for EC50: degradation, 4 hr incubation, top conc 10 uM, N ≥ 3, read-out: CK1a EC50; for CK1a Ymin: depth of degradation (100% = no reduction, 0% = complete degradation), 4 hr, N ≥ 3
T1 construct: expressed in transfected cells; host or cells: MDS-L
Description: (§1) Section 6: Assay Protocols
(§2) Fluorescence Resonance Energy Transfer-Based NSD@ PWWP Cereblon Binding Assay. […]
(§3) Compounds for testing were spotted into a 1536 well plate (Greiner Cat#782075). CRBN and Tracer solution were incubated in compound wells for 20 minutes. Detection mix containing Anti6xHis Tb Crytate (CisBio Cat#61HI2TLF) was then added to assay wells for a final 0.5x assay concentration of detection antibody (stock is provided at 400x). Plates were incubated for 30 minutes before being read on Pherastar FSX plate reader using TR-FRET module (Excitation 340nm, Emssion 615/665nm). ePL and HiBiT degradation assays
(§4) DF15 cells overexpressing ePL tagged GSPT1 (DF15/GSPT1 ePL OE) was used to monitor the degradation of GSPT1 induced by experimental compounds. MDS-L cells overexpressing ePL tagged CK1α and GSPT1G575N (MDS-L/CK1α ePL OE_ GSPT1G575N OE) was used to monitor the degradation of CK1α induced by experimental compounds. NCCIT cells with HiBiT tag knocked in at the c-terminus of SALL4 (NCCIT/SALL4-HiBiT KI) was used to monitor the degradation of SALL4 induced by experimental compounds. DF15 cells with HiBiT tag knocked in at the n-terminus of IKZF3 (DF15/HiBiT-IKZF3 KI) was used to monitor the degradation of AIOLOS (IKZF3) induced by experimental compounds. […]
(§5) The cell culture medium recipes, seeding densities and compound incubation time with cells are […]
(§6) Ta r g e t Cell line Cell culture medium Seeding Compound
(§7) (HI) FBS, 1mM sodium pyruvate, 25mM Hepes, 0.1% pluronic acid,
(§8) GSPT1G575N OE ng/mL of human recombinant IL3 […]
(§9) sodium pyruvate, 25mM Hepes, 0.1% pluronic acid, 1X NEAA
(§10) For all degradation assays, compounds were pre-spotted in a 153 6 well plate (Corning 3727) starting at 10uM with 3-fold serial dilution down 11 points in replicates using an Echo 650 series acoustic liquid handler. 5uL/well cells were seeded in the assay ready plate at the density and in […]
(§11) The final DMSO concentration in the cell culture was 0.25%. The plates were equilibrated at room temperature for 30 minutes before putting into a 37 °C CO2 incubator. After appropriate incubation period, plates were retrieved from the incubator and set at room temperature to equilibrate for 30 minutes, before adding ePL or HiBiT detection reagent. For ePL detection, the pre-prepared mixture of EA reagent, lysis buffer, and substrate reagent at ratio 1:1:4 from the DiscoverX InCELL Detection Kit (Eurofins 96-0079L) according to the manufacturer ’s recommendation was added 3ul/well into the plate. Plates were incubated in the dark for 1hr at room temperature before reading using a BMG PheraStar luminescence reader. For HiBiT detection, Nano-Glo HiBiT Lytic Reagent (Promega, N3050) prepared according to the manufacturer ’s recommendation was added 3 uL/well into the plate. Plates were incubated 30 minutes at room temperature in the dark before reading using a BMG PheraStar […]
(§12) To determine EC50 values for degradation, a four parameter logistic model (Sigmoidal Dose-Response Model) (FIT= (A+((B-A)/1+((C/x)^D)))) C is the inflection point (EC50), D is […] , A and B are the low and high limits of the fit respectively) was used to determine the compound’s EC50 value, which is the half maximum effective concentration. In the degradation assays, the Yconst of each compound was calculated by normalizing the lowest point of the fitted curve to the media only control, which is 0%, and the cells treated with DMSO control, which is 100%. All degradation curves were processed and evaluated using Dotmatics.
(§13) Section 7: Biological Data Tables

SALL4 = molecular target: T2, SALL4 (Homo sapiens, UniProt Q96SW2+Q9UJQ4); assay: HiBiT degradation assay, NCCIT/SALL4-HiBiT KI cells; assay type: cell-based; details: N ≥ 3; for EC50: degradation, 2 hr incubation, top conc 10 uM; for SALL4 Ymin: depth of degradation (100% = no reduction, 0% = complete degradation), 2 hr
T2 construct: endogenous in cells; host or cells: NCCIT (HiBiT knock-in)
Description: as §1, §2, §3, §4, §5, §6, §7, §8, §9, §10, §11, §12, §13

IKZF3 (Aiolos) = molecular target: T3, IKZF3 (Aiolos) (Homo sapiens, UniProt Q96SW2+Q9UKT9); assay: HiBiT degradation assay, DF15/HiBiT-IKZF3 KI cells; assay type: cell-based; details: N ≥ 3; for EC50: degradation, 4 hr incubation, top conc 10 uM; for IKZF3 Ymin: depth of degradation (100% = no reduction of protein level, 0% = complete degradation), 4 hr
T3 construct: endogenous in cells; host or cells: DF15 (HiBiT knock-in)
Description: as §1, §2, §3, §4, §5, §6, §7, §8, §9, §10, §11, §12, §13

GSPT1 = molecular target: T4, GSPT1 (Homo sapiens, UniProt P15170+Q96SW2); assay: ePL degradation assay, DF15/GSPT1 ePL OE cells; assay type: cell-based; details: N ≥ 3; for EC50: degradation, 20 hr incubation, top conc 10 uM; for GSPT1 Ymin: depth of degradation (100% = no reduction, 0% = complete degradation), 20 hr
T4 construct: expressed in transfected cells; host or cells: DF15
Description: as §1, §2, §3, §4, §5, §6, §7, §8, §9, §10, §11, §12, §13

CRBN = molecular target: T5, CRBN (Homo sapiens, UniProt Q96SW2); assay: Fluorescence Resonance Energy Transfer-Based Cereblon Binding Assay (CRBN HTRF); details: 0.5 nM 6×His-CRBN-DDB1, 20 nM tracer CC0782985, TR-FRET
T5 construct: (CRBN a.a. 1−442, DDB1 a.a); made in house
Description: as §1, §2, §3, §4

T3 sequence (Q9UKT9 whole entry): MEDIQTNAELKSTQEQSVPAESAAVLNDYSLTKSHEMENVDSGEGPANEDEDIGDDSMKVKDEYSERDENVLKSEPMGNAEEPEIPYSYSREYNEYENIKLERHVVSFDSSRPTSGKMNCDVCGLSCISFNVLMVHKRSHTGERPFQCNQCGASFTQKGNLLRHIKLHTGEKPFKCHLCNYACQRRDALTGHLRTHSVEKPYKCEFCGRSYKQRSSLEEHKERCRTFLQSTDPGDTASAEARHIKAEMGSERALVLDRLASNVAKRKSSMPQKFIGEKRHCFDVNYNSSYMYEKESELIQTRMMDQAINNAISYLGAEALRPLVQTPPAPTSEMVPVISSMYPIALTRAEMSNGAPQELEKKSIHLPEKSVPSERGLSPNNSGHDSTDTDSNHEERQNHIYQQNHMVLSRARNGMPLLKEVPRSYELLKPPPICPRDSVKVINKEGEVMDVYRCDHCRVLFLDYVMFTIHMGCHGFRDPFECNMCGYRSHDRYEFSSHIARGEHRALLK
T3 sequence (Q96SW2 whole entry): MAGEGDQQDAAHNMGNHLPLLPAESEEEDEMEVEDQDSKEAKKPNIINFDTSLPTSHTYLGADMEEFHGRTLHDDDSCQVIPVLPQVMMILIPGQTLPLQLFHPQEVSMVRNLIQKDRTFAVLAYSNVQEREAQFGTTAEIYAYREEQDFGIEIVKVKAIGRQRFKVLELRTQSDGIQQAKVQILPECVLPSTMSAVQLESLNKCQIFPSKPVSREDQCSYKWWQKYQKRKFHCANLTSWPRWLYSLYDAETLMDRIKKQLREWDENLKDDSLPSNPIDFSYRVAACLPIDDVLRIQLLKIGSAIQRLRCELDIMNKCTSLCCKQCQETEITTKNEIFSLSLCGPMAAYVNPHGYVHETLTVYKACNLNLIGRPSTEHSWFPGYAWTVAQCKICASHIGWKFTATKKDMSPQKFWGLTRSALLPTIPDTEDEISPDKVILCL
T3 sequence (Q16531 whole entry partner): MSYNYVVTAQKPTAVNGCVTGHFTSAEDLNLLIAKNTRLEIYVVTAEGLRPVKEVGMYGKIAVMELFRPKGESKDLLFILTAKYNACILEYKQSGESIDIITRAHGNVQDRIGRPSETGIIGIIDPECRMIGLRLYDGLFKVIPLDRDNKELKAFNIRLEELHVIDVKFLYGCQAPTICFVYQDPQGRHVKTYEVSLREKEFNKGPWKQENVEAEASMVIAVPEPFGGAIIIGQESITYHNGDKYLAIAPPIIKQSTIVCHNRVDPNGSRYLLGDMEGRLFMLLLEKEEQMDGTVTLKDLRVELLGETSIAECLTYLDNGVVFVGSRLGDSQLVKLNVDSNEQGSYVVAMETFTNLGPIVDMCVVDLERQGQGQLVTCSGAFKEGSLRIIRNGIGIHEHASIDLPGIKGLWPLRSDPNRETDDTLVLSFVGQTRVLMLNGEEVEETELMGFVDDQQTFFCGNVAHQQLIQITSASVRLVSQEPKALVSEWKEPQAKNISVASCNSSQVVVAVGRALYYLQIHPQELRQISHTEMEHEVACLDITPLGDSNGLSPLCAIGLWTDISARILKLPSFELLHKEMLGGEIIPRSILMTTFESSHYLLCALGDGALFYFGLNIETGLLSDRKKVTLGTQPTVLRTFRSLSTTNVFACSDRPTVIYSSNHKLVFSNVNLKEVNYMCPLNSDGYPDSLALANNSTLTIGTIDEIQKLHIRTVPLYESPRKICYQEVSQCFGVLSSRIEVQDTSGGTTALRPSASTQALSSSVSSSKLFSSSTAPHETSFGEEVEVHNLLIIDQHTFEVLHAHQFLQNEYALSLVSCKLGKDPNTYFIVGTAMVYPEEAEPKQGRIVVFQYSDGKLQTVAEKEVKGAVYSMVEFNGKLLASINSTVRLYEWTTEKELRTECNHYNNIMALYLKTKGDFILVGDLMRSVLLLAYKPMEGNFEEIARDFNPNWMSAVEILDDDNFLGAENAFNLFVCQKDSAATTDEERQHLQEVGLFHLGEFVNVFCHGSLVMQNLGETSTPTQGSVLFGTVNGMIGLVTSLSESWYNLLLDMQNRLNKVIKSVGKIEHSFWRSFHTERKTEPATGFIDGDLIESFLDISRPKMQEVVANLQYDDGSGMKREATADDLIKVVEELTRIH
T2 sequence (Q9UJQ4 whole entry): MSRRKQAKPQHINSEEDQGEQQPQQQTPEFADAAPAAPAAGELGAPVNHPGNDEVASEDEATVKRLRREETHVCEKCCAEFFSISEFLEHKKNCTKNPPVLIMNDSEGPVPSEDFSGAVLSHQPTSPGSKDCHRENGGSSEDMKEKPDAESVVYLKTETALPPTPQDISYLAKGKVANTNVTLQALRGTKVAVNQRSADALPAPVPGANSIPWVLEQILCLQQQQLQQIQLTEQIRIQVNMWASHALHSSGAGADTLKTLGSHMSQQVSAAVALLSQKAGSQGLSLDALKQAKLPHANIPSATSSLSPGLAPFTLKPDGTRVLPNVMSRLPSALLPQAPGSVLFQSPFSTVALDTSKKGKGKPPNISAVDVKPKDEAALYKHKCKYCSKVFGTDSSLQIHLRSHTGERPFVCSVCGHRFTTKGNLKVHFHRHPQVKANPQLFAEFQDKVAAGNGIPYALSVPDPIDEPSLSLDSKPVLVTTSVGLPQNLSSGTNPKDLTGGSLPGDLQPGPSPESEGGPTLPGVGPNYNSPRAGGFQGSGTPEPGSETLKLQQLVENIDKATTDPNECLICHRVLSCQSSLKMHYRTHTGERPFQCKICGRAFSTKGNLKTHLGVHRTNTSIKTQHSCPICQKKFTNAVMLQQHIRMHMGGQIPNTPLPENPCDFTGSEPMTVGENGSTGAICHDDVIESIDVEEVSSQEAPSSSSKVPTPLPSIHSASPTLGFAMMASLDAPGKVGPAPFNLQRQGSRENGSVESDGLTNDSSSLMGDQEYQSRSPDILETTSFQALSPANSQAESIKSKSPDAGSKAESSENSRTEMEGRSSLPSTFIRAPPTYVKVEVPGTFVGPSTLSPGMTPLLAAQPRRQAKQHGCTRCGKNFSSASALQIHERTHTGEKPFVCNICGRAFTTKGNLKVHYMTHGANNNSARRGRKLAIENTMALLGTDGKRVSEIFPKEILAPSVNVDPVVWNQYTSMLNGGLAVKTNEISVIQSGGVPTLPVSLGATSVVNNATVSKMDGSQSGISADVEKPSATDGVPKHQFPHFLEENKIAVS
T2 sequence (Q96SW2 whole entry): as the sequence (Q96SW2 whole entry) above
T2 sequence (Q16531 whole entry partner): as the sequence (Q16531 whole entry partner) above
T5 sequence (Q96SW2 whole entry): as the sequence (Q96SW2 whole entry) above
T5 sequence (Q16531 whole entry partner): as the sequence (Q16531 whole entry partner) above
T1 sequence (P48729 whole entry): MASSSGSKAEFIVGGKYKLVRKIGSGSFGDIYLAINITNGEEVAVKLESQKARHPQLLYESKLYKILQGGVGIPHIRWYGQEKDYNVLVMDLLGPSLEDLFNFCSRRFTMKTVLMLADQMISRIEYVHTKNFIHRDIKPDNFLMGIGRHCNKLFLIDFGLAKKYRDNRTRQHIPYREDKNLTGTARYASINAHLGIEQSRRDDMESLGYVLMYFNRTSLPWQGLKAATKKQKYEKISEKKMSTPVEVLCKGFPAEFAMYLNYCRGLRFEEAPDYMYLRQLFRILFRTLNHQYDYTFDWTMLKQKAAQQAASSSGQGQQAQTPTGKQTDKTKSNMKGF
T1 sequence (Q96SW2 whole entry): as the sequence (Q96SW2 whole entry) above
T1 sequence (Q16531 whole entry partner): as the sequence (Q16531 whole entry partner) above
T4 sequence (P15170 1-637 isoform P15170-3): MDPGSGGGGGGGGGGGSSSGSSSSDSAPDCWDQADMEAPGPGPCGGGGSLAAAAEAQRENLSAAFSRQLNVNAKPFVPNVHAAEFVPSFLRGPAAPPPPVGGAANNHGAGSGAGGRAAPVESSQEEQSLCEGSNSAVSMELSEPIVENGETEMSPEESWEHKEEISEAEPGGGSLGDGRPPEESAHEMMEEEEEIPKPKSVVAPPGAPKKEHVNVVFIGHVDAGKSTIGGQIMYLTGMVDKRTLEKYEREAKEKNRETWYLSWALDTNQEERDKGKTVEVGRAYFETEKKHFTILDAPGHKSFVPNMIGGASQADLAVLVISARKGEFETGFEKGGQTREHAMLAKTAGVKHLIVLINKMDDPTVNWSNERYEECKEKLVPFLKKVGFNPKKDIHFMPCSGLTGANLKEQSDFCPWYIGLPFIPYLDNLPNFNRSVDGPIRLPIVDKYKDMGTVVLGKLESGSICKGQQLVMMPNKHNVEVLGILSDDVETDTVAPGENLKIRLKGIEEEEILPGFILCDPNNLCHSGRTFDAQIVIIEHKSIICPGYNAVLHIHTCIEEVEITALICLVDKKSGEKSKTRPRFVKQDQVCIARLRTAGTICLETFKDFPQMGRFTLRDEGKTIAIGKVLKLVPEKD
T4 sequence (Q96SW2 whole entry): as the sequence (Q96SW2 whole entry) above
T4 sequence (Q16531 whole entry partner): as the sequence (Q16531 whole entry partner) above

SMILES | EC50 (CK1α) | CK1a Ymin (CK1α) | EC50 (SALL4) | SALL4 Ymin (SALL4) | EC50 (IKZF3 (Aiolos)) | EC50 (GSPT1) | GSPT1 Ymin (GSPT1) | IC50 (CRBN) | IKZF3 Ymin (IKZF3 (Aiolos))
O=C1CCC(N2Cc3c(cccc3[C@@H]3C[C@]3(C(=O)OCC(Cl)(Cl)Cl)c3ccc(Br)cc3)C2=O)C(=O)N1 (some centres unmarked) [Compound 13a] | > 10 µM | 87 ± 0.55% | > 10 µM | 85 ± 7.3% | > 10 µM and 1.86 µM | > 10 µM | 92 ± 7.8% | 0.66 µM | 
O=C1CCC(N2Cc3c(cccc3[C@H]3C[C@@]3(C(=O)OCC(Cl)(Cl)Cl)c3ccc(Br)cc3)C2=O)C(=O)N1 (some centres unmarked) [Compound 13b] | > 10 µM | 90 ± 7.1% | > 10 µM | 97 ± 3.1% | > 10 µM | > 10 µM | 99 ± 2.2% | 2.4 µM | 97 ± 4.9%
O=C1CCC(N2C(=O)c3cccc([C@@H]4C[C@]4(C(=O)OCC(Cl)(Cl)Cl)c4ccc(Br)cc4)c3C2=O)C(=O)N1 (some centres unmarked) [Compound 14a] | > 10 µM | 92 ± 3.8% | > 10 µM | 91 ± 8.0% | > 10 µM | > 10 µM | 91 ± 16% | > 10 µM | 89 ± 3.2%
O=C1CCC(N2C(=O)c3cccc([C@H]4C[C@@]4(C(=O)OCC(Cl)(Cl)Cl)c4ccc(Br)cc4)c3C2=O)C(=O)N1 (some centres unmarked) [Compound 14b] | > 10 µM | 94 ± 5.1% | > 10 µM | 87 ± 13% | > 10 µM | > 10 µM | 87 ± 11% | 7.9 µM | 
O=C1CCC(N2Cc3cc([C@@H]4C[C@]4(C(=O)OCC(Cl)(Cl)Cl)c4ccc(Br)cc4)ccc3C2=O)C(=O)N1 (some centres unmarked) [Compound 15a] | > 10 µM |  | > 10 µM | 99 ± 1.2% | > 10 µM | > 10 µM | 96 ± 7.8% | 0.39 µM | 100 ± 4.6%
O=C1CCC(N2Cc3cc([C@H]4C[C@@]4(C(=O)OCC(Cl)(Cl)Cl)c4ccc(Br)cc4)ccc3C2=O)C(=O)N1 (some centres unmarked) [Compound 15b] | 0.22 ± 0.089 µM |  | 0.16 ± 0.05 µM | 67 ± 5.4% | > 10 µM | > 10 µM | 83 ± 7.0% | 1.3 µM | 89 ± 5.0%
O=C1CCC(N2C(=O)c3ccc([C@@H]4C[C@]4(C(=O)OCC(Cl)(Cl)Cl)c4ccc(Br)cc4)cc3C2=O)C(=O)N1 (some centres unmarked) [Compound 16a] | > 10 µM | 94 ± 9.9% | > 10 µM | 92 ± 8.2% | > 10 µM | > 10 µM |  | 5.3 µM | 94 ± 8.3%
O=C1CCC(N2C(=O)c3ccc([C@H]4C[C@@]4(C(=O)OCC(Cl)(Cl)Cl)c4ccc(Br)cc4)cc3C2=O)C(=O)N1 (some centres unmarked) [Compound 16b] | > 10 µM | 85 ± 4.1% | 0.41 ± 0.16 µM | 60 ± 6.1% | > 10 µM | > 10 µM and 3.1 µM |  | > 10 µM | 97 ± 3.6%
O=C1CCC(N2Cc3ccc([C@@H]4C[C@]4(C(=O)OCC(Cl)(Cl)Cl)c4ccc(Br)cc4)cc3C2=O)C(=O)N1 (some centres unmarked) [Compound 17a] | > 10 µM | 98 ± 12% | > 10 µM | 97 ± 2.2% | > 10 µM | > 10 µM | 95 ± 5.4% | 2.1 µM | 95 ± 7.6%
O=C1CCC(N2Cc3ccc([C@H]4C[C@@]4(C(=O)OCC(Cl)(Cl)Cl)c4ccc(Br)cc4)cc3C2=O)C(=O)N1 (some centres unmarked) [Compound 17b] | > 10 µM | 96 ± 12% | > 10 µM | 96 ± 3.1% | > 10 µM | > 10 µM | 93 ± 5.8% | 2.5 µM | 89 ± 6.5%
O=C1CCC(N2Cc3cccc([C@@H]4C[C@]4(C(=O)OCC(Cl)(Cl)Cl)c4ccc(Br)cc4)c3C2=O)C(=O)N1 (some centres unmarked) [Compound 18a] | > 10 µM | 89 ± 1.7% | > 10 µM | 93 ± 3.8% | > 10 µM | > 10 µM | 87 ± 6.5% | > 10 µM | 91 ± 0.6%
O=C1CCC(N2Cc3cccc([C@H]4C[C@@]4(C(=O)OCC(Cl)(Cl)Cl)c4ccc(Br)cc4)c3C2=O)C(=O)N1 (some centres unmarked) [Compound 18b] | > 10 µM | 91 ± 7.1% | > 10 µM | 96 ± 5.4% | > 10 µM | > 10 µM | 83 ± 15% | > 10 µM | 96 ± 5.7%
O=C1CCC(N2Cc3c(cccc3C3=C[C@]3(C(=O)OCC(Cl)(Cl)Cl)c3ccc(Br)cc3)C2=O)C(=O)N1 (some centres unmarked) [Compound 19a] | 0.17 ± 0.18 µM | 64 ± 4.3% | 0.019 ± 0.01 µM | 23 ± 4.5% | 0.012 µM | 0.17 ± 0.13 µM | 64 ± 8.7% | 0.16 µM | 
O=C1CCC(N2Cc3c(cccc3C3=C[C@@]3(C(=O)OCC(Cl)(Cl)Cl)c3ccc(Br)cc3)C2=O)C(=O)N1 (some centres unmarked) [Compound 19b] | 1.5 ± 1.1 µM | 60 ± 7.4% | 0.17 ± 0.06 µM | 35 ± 5.9% | 0.11 ± 0.05 µM | 0.55 ± 0.47 µM | 66 ± 5.5% | 0.35 µM | 69 ± 3.3% and 69%
O=C1CCC(N2C(=O)c3cccc(C4=C[C@]4(C(=O)OCC(Cl)(Cl)Cl)c4ccc(Br)cc4)c3C2=O)C(=O)N1 (some centres unmarked) [Compound 20a] | 1.5 ± 0.94 µM | 56 ± 14% | 0.56 ± 0.27 µM | 34 ± 7.4% | 0.9 ± 0.18 µM | 4.3 ± 1.9 µM | 12 ± 13% | 4.6 µM | 40 ± 2.2%
O=C1CCC(N2C(=O)c3cccc(C4=C[C@@]4(C(=O)OCC(Cl)(Cl)Cl)c4ccc(Br)cc4)c3C2=O)C(=O)N1 (some centres unmarked) [Compound 20b] | 2.1 ± 1.3 µM | 54 ± 8.9% | 2.8 ± 1.6 µM | 57 ±7.7% | 3.7 µM and 3.67 µM | 5.1 ± 1.4 µM | 17 ± 13% |  | 10 ± 8.2% and 10%
O=C1CCC(N2C(=O)c3ccc(C4=C[C@@]4(C(=O)OCC(Cl)(Cl)Cl)c4ccc(Br)cc4)cc3C2=O)C(=O)N1 (some centres unmarked) [Compound 22b] | 1.6 ± 0.71 µM | 55 ± 39% | 2.4 ± 1.7 µM | 58 ± 3.2% | 0.31 ± 0.11 µM |  |  | 7.8 µM | 71 ± 9.7%
